Assay results published in patent US11673901B2, “Polycyclic compounds as allosteric SHP2 inhibitors” (Revolution Medicines, Inc., priority 2017, dated 2023).

What follows are molecules tested against SHP2 (Homo sapiens (Human), UniProt Q06124) (assay: SHP2 allosteric inhibition assay (DiFMUP prompt fluorescence)). Conditions: 0.2 nM SHP2 activated with 0.5 μM Activating Peptide 1 or 2; substrate DiFMUP; Table 1.
Chain of SHP2 (Q06124 whole entry): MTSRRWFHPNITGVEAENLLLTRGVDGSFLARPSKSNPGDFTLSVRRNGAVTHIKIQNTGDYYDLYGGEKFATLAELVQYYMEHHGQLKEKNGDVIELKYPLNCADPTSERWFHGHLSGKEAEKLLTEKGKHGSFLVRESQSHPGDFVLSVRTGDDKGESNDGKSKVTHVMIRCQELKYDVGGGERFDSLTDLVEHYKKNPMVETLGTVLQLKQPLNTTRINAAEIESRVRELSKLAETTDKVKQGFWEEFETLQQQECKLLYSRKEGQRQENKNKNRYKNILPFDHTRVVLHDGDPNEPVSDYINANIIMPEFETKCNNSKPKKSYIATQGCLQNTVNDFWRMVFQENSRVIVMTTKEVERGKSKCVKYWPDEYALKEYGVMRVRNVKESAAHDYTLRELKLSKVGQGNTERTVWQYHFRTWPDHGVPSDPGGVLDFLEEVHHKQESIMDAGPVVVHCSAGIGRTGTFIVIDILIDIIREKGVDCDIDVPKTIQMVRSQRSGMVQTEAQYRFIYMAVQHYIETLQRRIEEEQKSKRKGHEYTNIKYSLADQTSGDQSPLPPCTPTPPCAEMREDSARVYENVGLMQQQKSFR
Type: biochemical
Description: Without wishing to be bound by theory, SHP2 is allosterically activated through binding of bis-tyrosyl-phosphorylated peptides to its Src Homology 2 (SH2) domains. The latter activation step leads to the release of the auto-inhibitory interface of SHP2, which in turn renders the SHP2 protein tyrosine phosphatase (PTP) active and available for substrate recognition and reaction catalysis. The catalytic activity of SHP2 was monitored using the surrogate substrate DiFMUP in a prompt fluorescence assay format.
The phosphatase reactions were performed at room temperature in 96-well black polystyrene plate, flat bottom, non-binding surface (Corning, Cat #3650) using a final reaction volume of 100 μL and the following assay buffer conditions: 50 mM HEPES, pH 7.2, 100 mM NaCl, 0.5 mM EDTA, 0.05% P-20, 1 mM DTT.
The inhibition of SHP2 by compounds of the invention (concentrations varying from 0.00005-10 μM) was monitored using an assay in which 0.2 nM of SHP2 was incubated with 0.5 μM of Activating Peptide 1 (sequence: H2N-LN(pY)IDLDLV(dPEG8)LST(pY)ASINFQK-amide) or Activating Peptide 2 (sequence: H2N-LN(pY)AQLWHA(dPEG8)LTI(pY)ATIRRF-amide). After 30-60-minutes incubation at 25° C., the surrogate substrate DiFMUP (Invitrogen, Cat #D6567) was added to the reaction and activity was determined by a kinetic read using a microplate reader (Envision, Perkin-Elmer or Spectramax M5, Molecular Devices). The excitation and emission wavelengths were 340 nm and 450 nm, respectively. Initial rates were determined from a linear fit of the data, and the inhibitor dose response curves were analyzed using normalized IC50 regression curve fitting with control based normalization.
Work on C[C@@H]1OCC2(CCN(c3ncc(Sc4ccnc(N)c4Cl)c4nccn34)CC2)[C@@H]1N [Compound 1 (Example 1)] yielded an IC50 of 1 nM.
Molecule C[C@@H]1OCC2(CCN(c3ncc(Sc4ccnc(N)c4Cl)c4ncnn34)CC2)[C@@H]1N [Compound 4 (Example 4)] has an IC50 of 29 nM.

Same assay, conditions: 0.2 nM SHP2 activated with 0.5 μM Activating Peptide 1 or 2; substrate DiFMUP; Table 2, class symbols
Cc1nc(N2CCC3(CC2)CO[C@@H](C)[C@H]3N)n2cnnc2c1Sc1ccnc(N)c1Cl [Compound 61, (3S,4S)-8-{8-[(2-amino-3-chloropyridin-4-yl)sulfanyl]-7-methyl-[1,2,4]triazolo[4,3-c]pyrimidin-5-yl}-3-methyl-2-oxa-8-azaspiro[4.5]decan-4-amine] showed an IC50 of no more than 50 nM.
COc1nccc(-c2c(C)nc(N3CCC4(CC3)CO[C@@H](C)[C@H]4N)n3ccnc23)c1Cl [Compound 47, (3S,4S)-8-[8-(3-chloro-2-methoxypyridin-4-yl)-7-methylimidazo[1,2-c]pyrimidin-5-yl]-3-methyl-2-oxa-8-azaspiro[4.5]decan-4-amine] gave an IC50 of no more than 50 nM.
C[C@@H]1OCC2(CCN(c3ncc(Sc4ccnc(N5CC(S(C)(=O)=O)C5)c4Cl)c4nccn34)CC2)[C@@H]1N [Compound 12, (3S,4S)-8-(8-{[3-chloro-2-(3-methanesulfonylazetidin-1-yl)pyridin-4-yl]sulfanyl}imidazo[1,2-c]pyrimidin-5-yl)-3-methyl-2-oxa-8-azaspiro[4.5]decan-4-amine] was tested, and the IC50 was no more than 50 nM.
With NCCC1CN(c2ncc(Sc3ccnc(N)c3Cl)c3nccn23)C1 [Compound 22, 4-({5-[3-(2-aminoethyl)azetidin-1-yl]imidazo[1,2-c]pyrimidin-8-yl}sulfanyl)-3-chloropyridin-2-amine] the IC50 was greater than 500 nM.
For Cc1nc(N2CCC3(CC2)CO[C@@H](C)[C@H]3N)n2cnnc2c1-c1cccc(Cl)c1Cl [Compound 6, (3S,4S)-8-[8-(2,3-dichlorophenyl)-7-methyl-[1,2,4]triazolo[4,3-c]pyrimidin-5-yl]-3-methyl-2-oxa-8-azaspiro[4.5]decan-4-amine], the IC50 was no more than 50 nM.
For Nc1nccc(Sc2cnc(N3CCNCC3)n3ccnc23)c1Cl [Compound 27, 3-chloro-4-{[5-(piperazin-1-yl)imidazo[1,2-c]pyrimidin-8-yl]sulfanyl}pyridin-2-amine], the IC50 was greater than 500 nM.
Cc1nc(N2CCC3(CC2)CO[C@@H](C)[C@H]3N)n2ccnc2c1-c1ccc2cn[nH]c2c1 [Compound 30, (3S,4S)-8-[8-(2H-indazol-6-yl)-7-methylimidazo[1,2-c]pyrimidin-5-yl]-3-methyl-2-oxa-8-azaspiro[4.5]decan-4-amine] was tested, and the IC50 was no more than 50 nM.
For C[C@@H]1OCC2(CCN(c3ncc(Sc4cccc(C(=O)N(C)C)c4Cl)c4nccn34)CC2)[C@@H]1N [Compound 14, 3-({5-[(3S,4S)-4-amino-3-methyl-2-oxa-8-azaspiro[4.5]decan-8-yl]imidazo[1,2-c]pyrimidin-8-yl}sulfanyl)-2-chloro-N,N-dimethylbenzamide], the IC50 was 50 to 500 nM.
With CC1(N)CCN(c2ncc(Sc3ccnc(N)c3Cl)c3nccn23)CC1 [Compound 2, 4-{[5-(4-amino-4-methylpiperidin-1-yl)imidazo[1,2-c]pyrimidin-8-yl]sulfanyl}-3-chloropyridin-2-amine] the IC50 was 50 to 500 nM.
Work on Cc1nc(N2CCC3(CC2)CO[C@@H](C)[C@H]3N)n2ccnc2c1-c1ccc2[nH]cnc2c1 [Compound 33, (3S,4S)-8-[8-(1H-1,3-benzodiazol-6-yl)-7-methylimidazo[1,2-c]pyrimidin-5-yl]-3-methyl-2-oxa-8-azaspiro[4.5]decan-4-amine] yielded an IC50 of no more than 50 nM.
Cc1nc(N2CCC3(CC2)CO[C@@H](C)[C@H]3N)n2ccnc2c1-c1cccc2cn[nH]c12 [Compound 36, (3S,4S)-8-[8-(2H-indazol-7-yl)-7-methylimidazo[1,2-c]pyrimidin-5-yl]-3-methyl-2-oxa-8-azaspiro[4.5]decan-4-amine] was tested, and the IC50 was no more than 50 nM.
C[C@@H]1OCC2(CCN(c3nc4[nH]nc(-c5cccc(Cl)c5Cl)c4c4nccn34)CC2)[C@@H]1N [Compound 83, (3S,4S)-8-[12-(2,3-dichlorophenyl)-3,6,8,10,11-pentaazatricyclo[7.3.0.0^2,6]dodeca-1(12),2,4,7,9-pentaen-7-yl]-3-methyl-2-oxa-8-azaspiro[4.5]decan-4-amine] showed an IC50 of no more than 50 nM.
For Cc1nc(N2CCC3(CC2)CO[C@@H](C)[C@H]3N)n2ccnc2c1-c1cccc2c(F)c[nH]c12 [Compound 55, (3S,4S)-8-[8-(3-fluoro-1H-indol-7-yl)-7-methylimidazo[1,2-c]pyrimidin-5-yl]-3-methyl-2-oxa-8-azaspiro[4.5]decan-4-amine], the IC50 was no more than 50 nM.
With COc1c(C#N)ccc(-c2c(C)nc(N3CCC4(CC3)CO[C@@H](C)[C@H]4N)n3ccnc23)c1Cl [Compound 46, 4-{5-[(3S,4S)-4-amino-3-methyl-2-oxa-8-azaspiro[4.5]decan-8-yl]-7-methylimidazo[1,2-c]pyrimidin-8-yl}-3-chloro-2-methoxybenzonitrile] the IC50 was no more than 50 nM.
C[C@@H]1OCC2(CCN(c3ncc(Sc4ccnc(N)c4Cl)c4ncnn34)CC2)[C@@H]1N [Compound 4, (3S,4S)-8-{8-[(2-amino-3-chloropyridin-4-yl)sulfanyl]-[1,2,4]triazolo[1,5-c]pyrimidin-5-yl}-3-methyl-2-oxa-8-azaspiro[4.5]decan-4-amine] gave an IC50 of no more than 50 nM.
For Cc1nc(N2CCC3(CC2)CO[C@@H](C)[C@H]3N)n2ccnc2c1Sc1ccnc(N)c1Cl [Compound 29, (3S,4S)-8-{8-[(2-amino-3-chloropyridin-4-yl)sulfanyl]-7-methylimidazo[1,2-c]pyrimidin-5-yl}-3-methyl-2-oxa-8-azaspiro[4.5]decan-4-amine], the IC50 was no more than 50 nM.
For Cc1nc(N2CCC3(CC2)CC(N2CC(C#N)C2)C[C@H]3N)n2ccnc2c1-c1cccc(Cl)c1Cl (stereo partly drawn) [Compound 62, 1-[(4R)-4-amino-8-[8-(2,3-dichlorophenyl)-7-methylimidazo[1,2-c]pyrimidin-5-yl]-8-azaspiro[4.5]decan-2-yl]azetidine-3-carbonitrile], the IC50 was no more than 50 nM.
With NCCNc1ncc(Sc2ccnc(N)c2Cl)c2nccn12 [Compound 23, N1-{8-[(2-amino-3-chloropyridin-4-yl)sulfanyl]imidazo[1,2-c]pyrimidin-5-yl}ethane-1,2-diamine] the IC50 was greater than 500 nM.
Molecule Nc1nccc(Sc2cnc(N3CC[C@@H](N)C3)n3ccnc23)c1Cl [Compound 28, 4-({5-[(3R)-3-aminopyrrolidin-1-yl]imidazo[1,2-c]pyrimidin-8-yl}sulfanyl)-3-chloropyridin-2-amine] has an IC50 greater than 500 nM.
For C[C@@H]1OCC2(CCN(c3ncc(Sc4ccnc(N)c4)c4nccn34)CC2)[C@@H]1N [Compound 16, (3S,4S)-8-{8-[(2-aminopyridin-4-yl)sulfanyl]imidazo[1,2-c]pyrimidin-5-yl}-3-methyl-2-oxa-8-azaspiro[4.5]decan-4-amine], the IC50 was 50 to 500 nM.
For Nc1nccc(Sc2cnc(NCCO)n3ccnc23)c1Cl [Compound 73], the IC50 was greater than 500 nM.
For Cc1nc(N2CCC3(CC2)CO[C@@H](C)[C@H]3N)n2ccnc2c1-c1ccc2nccnc2c1Cl [Compound 41, (3S,4S)-8-[8-(5-chloroquinoxalin-6-yl)-7-methylimidazo[1,2-c]pyrimidin-5-yl]-3-methyl-2-oxa-8-azaspiro[4.5]decan-4-amine], the IC50 was no more than 50 nM.
With CC1(N)CCN(c2ncc(-c3cccc(Cl)c3Cl)c3nccn23)CC1 [Compound 3, 1-[8-(2,3-dichlorophenyl)imidazo[1,2-c]pyrimidin-5-yl]-4-methylpiperidin-4-amine] the IC50 was greater than 500 nM.
Work on Cc1nc(N2CCC3(CC2)CO[C@@H](C)[C@H]3N)n2ccnc2c1-c1ccc2c(cnn2C)c1 [Compound 34, (3S,4S)-3-methyl-8-[7-methyl-8-(1-methyl-1H-indazol-5-yl)imidazo[1,2-c]pyrimidin-5-yl]-2-oxa-8-azaspiro[4.5]decan-4-amine] yielded an IC50 of no more than 50 nM.
Cc1nc(N2CCC3(CC2)CO[C@@H](C)[C@H]3N)n2ccnc2c1-c1ccc2ccnn2c1 [Compound 48, (3S,4S)-3-methyl-8-(7-methyl-8-pyrazolo[1,5-a]pyridin-6-yl-imidazo[1,2-c]pyrimidin-5-yl)-2-oxa-8-azaspiro[4.5]decan-4-amine] gave an IC50 of no more than 50 nM.
C[C@@H]1OCC2(CCN(c3ncc(Sc4cccc(Cl)c4Cl)c4nccn34)CC2)[C@@H]1N [Compound 11, (3S,4S)-8-{8-[(2,3-dichlorophenyl)sulfanyl]imidazo[1,2-c]pyrimidin-5-yl}-3-methyl-2-oxa-8-azaspiro[4.5]decan-4-amine] gave an IC50 of no more than 50 nM.
With NC[C@H]1CCN(c2ncc(Sc3ccnc(N)c3Cl)c3nccn23)C1 [Compound 24, 4-({5-[(3R)-3-(aminomethyl)pyrrolidin-1-yl]imidazo[1,2-c]pyrimidin-8-yl}sulfanyl)-3-chloropyridin-2-amine] the IC50 was 50 to 500 nM.
Nc1nccc(Sc2cnc(N3CC[C@H](N)C3)n3ccnc23)c1Cl [Compound 21, 4-({5-[(3S)-3-aminopyrrolidin-1-yl]imidazo[1,2-c]pyrimidin-8-yl}sulfanyl)-3-chloropyridin-2-amine] gave an IC50 greater than 500 nM.
